Assay results taken from patent US20030228607A1, “Screening method and modulators having an improved therapeutic profile” (priority 2002, published 2003).

Columns and labels:
ABCA1 [1] = experiment: ABCA1 mRNA (RT-PCR) and protein (western blot) in peritoneal macrophage; type: cell-based, mouse; details: 1 μM, 18 hrs
Description: FIG. 2. LXR dependent activation and repression of ABCA1. Thyoglycolate induced peritoneal macrophage were isolated from wild type and LXRαβ knockout mice. […] FIG. 2A. Following induction mRNA was isolated and RT-PCR was used to quantitate the levels of ABCA1 and the cyclophilin. ABCA1 levels were normalized to cyclophilin levels and the results are presented as fold induction above wild type macrophage treated with vehicle. FIG. 2B. For western blot analysis, whole cells extracts were isolated, run on an SDS-PAGE and probed with an antibody specific for ABCA1. RNA isolation and analysis of gene expression by quantitative RT-PCR. Total RNA from mouse tissues and cells was isolated using RNeasy kits (QIAGEN Inc.) according to the supplier's total RNA isolation procedure. Real time PCR was performed using a Perkin-Elmer/ABI 7700 Prism. […] Quantitative PCR of reverse transcriptase reactions was carried out with 1.25 units Taq polymerase (Life Technologies), 1× Taq buffer, 3 mM MgCl2, 200 uM dNTPs, 400 nM target specific forward and reverse primers and 100 nM target specific fluorogenic probe. […] Levels of cyclophilin were measured in all in vivo samples and the results are presented as number of target transcripts per cyclophilin transcript. […] RT-PCR was used to quantitate the levels of ABCA1 and the cyclophilin following induction of mRNA. […]

ABCA1 [2] = experiment: ABCA1 mRNA in tissues of mice dosed by oral gavage; type: in vivo, mouse; details: 10 mg/kg daily for 7 days, intestinal mucosa, liver, quadriceps, LXR dependent
Method: (§1) FIG. 5. LXR mediated repression of ABCA1 is tissue specific. To measure the LXR dependent regulation of ABCA1 in different tissues wild type and LXRαβ−/− mice were dosed with 10 mg/kg T0901317 for 7 days by oral gavage. After 7 days the animals were sacrificed and intestinal mucosa, quadriceps, and livers were harvested. Mouse embryonic fibroblasts (MEFs) were isolated from embryos harvested at embryonic day 14. MEFs were plated in DMEM+10% FBS and treated with either vehicle or 1 μM T0901317 for 18 hrs. RNA was isolated and RT-PCR was used to quantitate the levels of ABCA1 and cyclophilin in FIG. 5A, intestinal mucosa, FIG. 5B, liver, FIG. 5C, MEFs and FIG. 5D, quadricep. […] RNA isolation and analysis of gene expression by quantitative RT-PCR. […] Quantitative PCR of reverse transcriptase reactions was carried out with 1.25 units Taq polymerase (Life Technologies), 1× Taq buffer, 3 mM MgCl2, 200 uM dNTPs, 400 nM target specific forward and reverse primers and 100 nM target specific fluorogenic probe. […] Levels of cyclophilin were measured in all in vivo samples and the results are presented as number of target transcripts per cyclophilin transcript. […] ABCA1 levels were also measured in isolated mouse embryonic fibroblasts treated with T091317 in culture. LXR agonist treatment increases expression of ABCA1 mRNA in all of the tissues analyzed, in an LXR dependent manner. […]

ABCA1 [3] = experiment: ABCA1 mRNA in mouse embryonic fibroblasts in culture; type: cell-based; details: MEFs in culture, 1 μM, 18 hrs; LXR dependent
Method: as §1

[4] = target: T1, human LXRα ligand binding domain with co-repressors NCoR and SMRT (Homo sapiens, UniProt Q13133); experiment: GAL4 two-hybrid co-repressor interaction in CV-1 cells, LXRα; type: cell-based; details: 1 μM overnight, luciferase normalized to β-gal
T1 construct: expressed in transfected cells; host or cells: CV-1 cells
T1 sequence (Q13133 164-447): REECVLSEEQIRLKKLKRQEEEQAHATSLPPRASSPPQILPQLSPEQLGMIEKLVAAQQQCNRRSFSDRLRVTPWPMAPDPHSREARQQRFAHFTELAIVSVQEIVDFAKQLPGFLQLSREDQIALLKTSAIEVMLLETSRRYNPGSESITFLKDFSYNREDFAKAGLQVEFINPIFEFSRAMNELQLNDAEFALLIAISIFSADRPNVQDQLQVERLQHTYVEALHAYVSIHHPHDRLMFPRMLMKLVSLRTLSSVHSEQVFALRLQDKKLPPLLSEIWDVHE
Method: (§2) FIG. 6. […] Two-hybrid analysis was performed by transiently transfecting CV-1 cells with a Gal4-luciferase reporter, Gal4-fusions of the receptor interacting domains of NcoR and SMRT, VP16 fusion of the ligand binding domains of LXRα and LXRβ and a β-gal expression vector. Cells were transfected with FUGENE transfection reagent and incubated with vehicle or 1 μM T0901317 overnight. The cells were then lysed and analyzed for β-gal and luciferase activity. The data is presented as luciferase activity normalized to β-gal activity.
(§3) GAL4 two-hybrid experiments. CV-1 cells were transfected using FuGene6 (Roche Applied Science, Indianapolis, Ind.) per manufacturer's instructions in 96 well plates with a total of 65 ng of DNA per well, consisting of 20 ng β-gal reporter, 15 ng GAL4-UAS4xRE (SEQ. ID. No. 28), 15 ng VP16-LXR-LBD, and 15 ng GAL4-human silencing mediator of retinoid and thyroid transcription (SMRT) receptor interacting domain 1 and 2 (ID1+ID2) or human nuclear receptor corepressor 1 (NCoR) ID1+ID2.

[5] = target: T2, human LXRβ ligand binding domain with co-repressors NCoR and SMRT (Homo sapiens, UniProt P55055, DUP175-175); experiment: GAL4 two-hybrid co-repressor interaction in CV-1 cells, LXRβ; type: cell-based; details: 1 μM overnight, luciferase normalized to β-gal
T2 construct: expressed in transfected cells; host or cells: CV-1 cells
T2 sequence (P55055 with tags, fused parts or gaps DUP175-175): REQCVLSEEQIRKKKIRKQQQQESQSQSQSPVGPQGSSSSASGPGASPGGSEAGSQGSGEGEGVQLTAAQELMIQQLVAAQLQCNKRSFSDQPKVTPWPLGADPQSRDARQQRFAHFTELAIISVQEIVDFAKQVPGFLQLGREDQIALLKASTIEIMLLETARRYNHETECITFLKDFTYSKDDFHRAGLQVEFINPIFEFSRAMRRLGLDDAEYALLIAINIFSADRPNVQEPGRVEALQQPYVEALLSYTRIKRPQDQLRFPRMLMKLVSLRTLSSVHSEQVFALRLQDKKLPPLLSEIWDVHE
Method: as §2, §3

[6] = target: T3, GAL4-human silencing mediator of retinoid and thyroid transcription (SMRT) receptor interacting domain 1 and … (yeast; human); experiment: mammalian GAL4/VP16 two-hybrid, CV-1 cells, luciferase reporter
T3 construct: also called GAL4-SMRT ID1+ID2
T3 chain: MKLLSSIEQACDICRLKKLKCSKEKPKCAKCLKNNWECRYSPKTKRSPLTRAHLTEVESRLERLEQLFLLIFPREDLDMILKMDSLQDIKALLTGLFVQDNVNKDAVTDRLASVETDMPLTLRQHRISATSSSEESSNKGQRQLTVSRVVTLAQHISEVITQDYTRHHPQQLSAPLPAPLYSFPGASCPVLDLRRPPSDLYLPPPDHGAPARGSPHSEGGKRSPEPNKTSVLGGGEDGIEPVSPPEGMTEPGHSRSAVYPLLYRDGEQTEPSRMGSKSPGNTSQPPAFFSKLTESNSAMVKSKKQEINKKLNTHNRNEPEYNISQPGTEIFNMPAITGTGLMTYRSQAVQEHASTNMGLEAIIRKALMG

With `O=S(=O)(c1ccccc1)N(CC(F)(F)F)c1ccc(C(O)(C(F)(F)F)C(F)(F)F)cc1` [T0901317, N-(2,2,2,-trifluoro-ethyl)-N-[4-(2,2,2-trifluoro-1-hydroxy-1-trifluoromethyl-ethyl)-phenyl]-benzenesulfonamide] the “ABCA1 mRNA levels” value (ABCA1 [1]; RT-PCR normalized to cyclophilin, LXR dependent (wild type vs LXRαβ-/-)) was “increases”, the ABCA1 protein levels (ABCA1 [1]; western blot, LXR dependent) was “increases” and the “expression of ABCA1 mRNA in tissues” value (ABCA1 [2]) was “increases”. The “expression of ABCA1 mRNA in mouse embryonic fibroblasts” value (ABCA1 [3]) was “increases”, the “interaction of LXRα with co-repressors NCoR and SMRT” value [4] was “inhibited” and the “interaction of LXRβ with co-repressors NCoR and SMRT” value [5] was “inhibited”.

B1: VP16-LXR-LBD (VP16 activation domain fused to the ligand binding domain of human LXRβ, amino acids 155-461) (receptor)
chain: SRGRTRNNYGSTIEGLLDLPDDDDAPAEAGLVAPRMSFLSAGQRPRRLSTTAPITDVSLVDELRLDGEEVDMTPADALDDFDLEMLGDVESPSPGMTHDPVSYGALDVDDFEFEQMFTDALGIDDFGGREQCVLSEEQIRKKKIRKQQQESQSQSQSPVGPQGSSSSASGPGASPGGSEAGSQGSGEGEGVQLTAAQELMIQQLVAAQLQCNKRSFSDQPKVTPWPLGADPQSRDARQQRFAHFTELAIISVQEIVDFAKQVPGFLQLGREDQIALLKASTIEIMLLETARRYNHETECITFLKDFTYSKDDFHRAGLQVEFINPIFEFSRAMRRLGLDDAEYALLIAINIFSADRPNVQEPGRVEALQQPYVEALLSYTRIKRPQDQLRFPRMLMKLVSLRTLSSVHSEQVFALRLQDKKLPPLLSEIWDVHE
notes: also called VP16 fusion of LXRβ; VP16-LXRβ-LBD
B1: binds [6].

B2: VP16-LXR-LBD (VP16 activation domain fused to the ligand binding domain of human LXRα, amino acids 164-447) (receptor)
chain: SRGRTRNNYGSTIEGLLDLPDDDDAPAEAGLVAPRMSFLSAGQRPRRLSTTAPITDVSLVDELRLDGEEVDMTPADALDDFDLEMLGDVESPSPGMTHDPVSYGALDVDDFEFEQMFTDALGIDDFGGREECVLSEEQIRLKKLKRQEEEQAHATSLPPRRSSPPQILPQLSPEQLGMIEKLVAAQQQCNRRSFSDRLRVTPWPMAPDPHSREARQQRFAHFTELAIVSVQEIVDFAKQLPGFLQLSREDQIALLKTSAIEVMLLETSRRYNPGSESITFLKDFSYNREDFAKAGLQVEFINPIFEFSRAMNELQLNDAEFALLIAISIFSADRPNVQDQLQVERLQHTYVEALHAYVSIHHPHDRLMFPRMLMKLVSLRTLSSVHSEQVFALRLQDKKLPPLLSEIWDVHE
notes: also called VP16 fusion of LXRα; VP16-LXRα-LBD
B2: binds [6].
